Source: the supplement of paper PMC5844555

Tests used:
Assay in all cases: 3' UTR reporter interaction score (median-centred robust z-score of log2 firefly/Renilla activity); higher = less repression of the 3' UTR reporter
Settings in all cases: HEK293T; 48 h
BRCA2 = system: BRCA2
Outline: (§1)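 A firefly luc2P reporter carrying the gene's 3' UTR (100 ng), Renilla pRL-TK control (20 ng) and miRNA mimic (2.5 pmol) were co-transfected with DharmaFECT Duo into HEK293T cells plated at 10,000/well in 96-well plates. Luciferase activities were read 48 h post-transfection. The interaction score is the log firefly/Renilla ratio as a per-plate robust z-score from median and median absolute deviation, median-centred per miRNA, and more negative indicates interaction. Values are averages of at least two independent screens.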

EZH2 = system: EZH2
Outline: as §1

FBXW7 = system: FBXW7
Outline: as §1

HRAS = system: HRAS
Outline: as §1

MYB = system: MYB
Outline: as §1

MYCN = system: MYCN
Outline: as §1

MYC = system: MYC
Outline: as §1

MYT1L = system: MYT1L
Outline: as §1

NOTCH1 = system: NOTCH1
Outline: as §1

PHF6 = system: PHF6
Outline: as §1

PHOX2B = system: PHOX2B
Outline: as §1

RB1 = system: RB1
Outline: as §1

TP53 = system: TP53
Outline: as §1

ZEB2 = system: ZEB2
Outline: as §1

| Sequence | 3' UTR reporter interaction score (BRCA2) | 3' UTR reporter interaction score (EZH2) | 3' UTR reporter interaction score (FBXW7) | 3' UTR reporter interaction score (HRAS) | 3' UTR reporter interaction score (MYB) | 3' UTR reporter interaction score (MYCN) | 3' UTR reporter interaction score (MYC) | 3' UTR reporter interaction score (MYT1L) | 3' UTR reporter interaction score (NOTCH1) | 3' UTR reporter interaction score (PHF6) | 3' UTR reporter interaction score (PHOX2B) | 3' UTR reporter interaction score (RB1) | 3' UTR reporter interaction score (TP53) | 3' UTR reporter interaction score (ZEB2) |
| --- | --- | --- | --- | --- | --- | --- | --- | --- | --- | --- | --- | --- | --- | --- |
| GUGAGUCUCUAAGAAAAGAGGA | 0.654 | -0.0137 | 1.15 | -1.03 | -1.86 | -0.777 | -0.241 | 0.22 | 0.287 | 0.947 | -1.54 | -0.543 | 1.06 | 0.201 |
| GUGCAUUGCUGUUGCAUUGCA | -0.52 | 0.0384 | -0.35 | -0.237 | -2.09 | 0.79 | -1.33 | 0.516 | 0.367 | -0.271 | 0.67 | -0.687 | 0.631 | -2.34 |
| GUGCAUUGUAGUUGCAUUG | -0.383 | -0.326 | 0.387 | -0.432 | 0.56 | -0.218 | -0.88 | -0.399 | 0.471 | -0.0198 | 1.4 | -0.339 | 0.444 | -0.884 |
| GUGCCGCCAUCUUUUGAGUGU | -0.313 | 1.03 | -3.5 | -0.278 | 0.102 | 0.415 | 1.02 | -0.378 | -0.278 | 1.8 | -0.654 | 0.47 | 0.183 | -1.72 |
| GUGCCUACUGAGCUGAUAUCAGU | 0.244 | 0.242 | 0.26 | -0.972 | 0.61 | 0.559 | 0.239 | -1.1 | -1.95 | -1.31 | 1.18 | 0.454 | 0.396 | -0.6 |
| GUGGCUGCACUCACUUCCUUC | -1.87 | 0.166 | 0.899 | -0.434 | 0.056 | 1.8 | 0.00108 | 1.48 | 0.486 | 1.53 | -0.165 | 1.44 | -1.37 | -0.491 |
| GUGUCUGCUUCCUGUGGGA | 0.42 | -0.0979 | 0.999 | -2.48 | -0.0781 | -0.382 | -0.0744 | 0.553 | -0.363 | 0.326 | -0.344 | -0.362 | 0.286 | 0.24 |
| GUGUCUUUUGCUCUGCAGUCA | -0.493 | 1.94 | -1.58 | 2.01 | -0.175 | 0.0597 | 1.06 | 0.207 | -1.08 | -0.433 | -2.8 | 0.189 | 0.375 | -1.45 |
| GUGUGUGGAAAUGCUUCUGC | -2.78 | 1.67 | -0.236 | 0.713 | 1.87 | 1.7 | -0.259 | -1.13 | -0.133 | 1.54 | -1.13 | 1.07 | -0.707 | -1.28 |
| GUUCAAAUCCAGAUCUAUAAC | 0.0735 | -0.256 | 1.03 | -0.14 | -0.548 | -0.012 | -0.205 | -0.972 | -0.33 | -0.553 | 1.14 | -0.538 | 0.149 | 0.383 |
